Our source for the EC50 values is patent US20130109718A1, “1-CYCLOALKYL- OR 1-HETEROCYCLYL-HYDROXYIMINO-3-PHENYL-PROPANES” (Hoffmann-La Roche Inc., priority 2011, published 2013).

Each structure is given as a SMILES string.

In the assay the target is T1, human GPBAR1 receptor (Homo sapiens, UniProt Q8TDU6).
T1 construct: expressed in transfected cells
T1 sequence (Q8TDU6 1-330): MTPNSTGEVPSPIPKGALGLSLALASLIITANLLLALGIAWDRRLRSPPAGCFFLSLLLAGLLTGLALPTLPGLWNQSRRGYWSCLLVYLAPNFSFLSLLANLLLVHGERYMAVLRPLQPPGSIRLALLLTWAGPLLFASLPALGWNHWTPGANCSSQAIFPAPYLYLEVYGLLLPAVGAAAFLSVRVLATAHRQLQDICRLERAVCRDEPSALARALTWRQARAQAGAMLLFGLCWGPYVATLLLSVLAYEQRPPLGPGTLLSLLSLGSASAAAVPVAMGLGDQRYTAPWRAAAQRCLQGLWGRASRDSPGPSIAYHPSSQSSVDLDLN
Briefly: functional cAMP assay in CHO-dhfr(minus) cells expressing human GPBAR1 receptors. The class given is cell-based. Conditions: CHO-dhfr(minus) cells expressing human GPBAR1, 30 min at 30° C. An excerpt: The cDNA of the human GPBAR1 receptor (Genbank: NM_170699 with the exception of a silent C:G mutation at position 339 from the start codon) was amplified by polymerase chain reaction (PCR) from human cDNA and inserted into pCineo (Promega) by standard methods (Current Protocols in Molecular Biology, Wiley Press, ed. Ausubel et al.). The final clone was verified by DNA sequence analysis. The plasmid was transfected into CHO cells deficient in dihydrofolate reductase activity (CHO-dhfr-) using Lipofectamine plus (Invitrogen). Clones were isolated in limited dilution conditions and identified by activities in the cAMP assay using lithocholic acid as agonist. A clonal cell line displaying the greatest activity in cAMP increases was selected and identified as giving consistently good responses for up to at least 20 passages.
CHO-dhfr(minus) cells expressing human GPBAR1 receptors are seeded 17-24 hours prior to the experiment 50.000 cells per well in a black 96 well plate with flat clear bottom (Corning Costar #3904) in DMEM (Invitrogen No. 31331), 1×HT supplement, with 10% fetal calf serum and incubated at 5% CO2 and 37° C. in a humidified incubator. The growth medium was exchanged with Krebs Ringer Bicarbonate buffer with 1 mM IBMX and incubated at 30° C. for 30 min. Compounds were added to a final assay volume of 100 μl and incubated for 30 min at 30° C. The assay was stopped by the addition of 50 μl lysis reagent (Tris, NaCl, 1.5% Triton X100, 2.5% NP40, 10% NaN3) and 50 μl detection solutions (20 μM mAb Alexa700-cAMP 1:1, and 48 μM Ruthenium-2-AHA-cAMP) and shaken for 2 h at room temperature. The time-resolved energy transfer is measured by a TRF reader (Evotec Technologies GmbH, Hamburg Germany), equipped with a ND:YAG laser as excitation source. The plate is measured twice with the excitation at 355 nm and at the emission with a delay of 100 ns and a gate of 100 ns, total exposure time 10 s at 730 (bandwidth 30 nm) or 645 nm (bandwidth 75 nm), respectively. The measured signal at 730 nm has to be corrected for the ruthenium background, the direct excitation of Alexa and the buffer control. The FRET signal is calculated as follows: FRET=T730-Alexa730-P(T645-B645) with P=Ru730-B730/Ru645-B645, where T730 is the test well measured at 730 nM, T645 is the test well measured at 645 nm, B730 and B645 are the buffer controls at 730 nm and 645 nm, respectively. cAMP content is determined from the function of a standard curve spanning from 10 μM to 0.13 nM cAMP.
EC50 values were determined using Activity Base analysis (ID Business Solution, Limited). The EC50 values for a wide range of bile acids generated from this assay were in agreement with the values published in the scientific literature. Specificity for GPBAR1 was tested in non-transfected CHO cells in the same assay as above.
Consider `Cc1ccccc1[C@H](C/C(=N\O)C1CCC(=O)N(C)C1)c1ccc(S(C)(=O)=O)cc1` (mixture of isomers) [Example 1, 5-((R,E)-1-(Hydroxyimino)-3-(4-(methylsulfonyl)phenyl)-3-o-tolylpropyl)-1-methylpiperidin-2-one], for which a half-maximal effect (EC50) was put at 118 nM.

With `Cc1ccccc1[C@H](C/C(=N\O)C1CCC(=O)N(C)C1)c1ccc(S(C)(=O)=O)cc1` (single isomer, unassigned) [Example 3], the midpoint of the response, the EC50, lay at 145 nM. `Cc1ccccc1[C@H](C/C(=N\O)C1CCC(=O)N(C)C1)c1ccc(S(C)(=O)=O)cc1` (single isomer, unassigned) [Example 4] registered an EC50 of 29 nM. Turning to `Cc1ccccc1[C@H](C/C(=N/O)C1CCC(=O)N(C)C1)c1ccc(S(C)(=O)=O)cc1` (stereo partly drawn) [Example 2, 5-((R,Z)-1-(hydroxyimino)-3-(4-(methylsulfonyl)phenyl)-3-o-tolylpropyl)-1-methylpiperidin-2-one], the response was half-maximal at 8670 nM (EC50).

For `Cc1ccccc1[C@H](C/C(=N\O)C1CCC(=O)N(C)C1)c1ccc(N2CCC(C(=O)O)CC2)cc1` (stereo partly drawn) [Example 5, Sodium 1-(4-((1R,E)-3-(hydroxyimino)-3-(1-methyl-6-oxopiperidin-3-yl)-1-o-tolylpropyl)phenyl)piperidine-4-carboxylate], the midpoint of the response, the EC50, lay at 42 nM. `Cc1ccccc1[C@H](C/C(=N\O)C1CCC(=O)N(C)C1)c1ccccc1` (stereo partly drawn) [Example 6, 5-((R,E)-1-(Hydroxyimino)-3-phenyl-3-o-tolylpropyl)-1-methylpiperidin-2-one] displayed an EC50 of 51 nM. For the compound `Cc1ccccc1[C@H](C/C(=N\O)C1CCC(=O)N(C)C1)c1ccc(-c2ccc(C(=O)O)cc2)cc1` (stereo partly drawn) [Example 7, 4′-((1R,E)-3-(Hydroxyimino)-3-(1-methyl-6-oxopiperidin-3-yl)-1-o-tolylpropyl)biphenyl-4-carboxylic acid], the EC50 was 558 nM. `CC(=O)N1CCC(/C(CC(c2ccc(Br)cc2)c2ccccc2C)=N/O)CC1` (stereo not drawn) [Example 8, (E)-1-(4-(3-(4-Bromophenyl)-1-(hydroxyimino)-3-o-tolylpropyl)piperidin-1-yl)ethanone]: a half-maximal response (EC50) required 8270 nM. The value for `Cc1ccccc1C(C/C(=N\O)C1CCOCC1)c1ccc(Br)cc1` (stereo not drawn) [Example 9, (E)-3-(4-Bromophenyl)-1-(tetrahydro-2H-pyran-4-yl)-3-o-tolylpropan-1-one oxime] was 118 nM; that for `CS(=O)(=O)c1ccc(C(C/C(=N\O)C2CCOCC2)c2ccccc2)cc1` (stereo not drawn) [Example 10, (E)-3-(4-(Methylsulfonyl)phenyl)-3-phenyl-1-(tetrahydro-2H-pyran-4-yl)propan-1-one oxime] was 799 nM; that for `Cc1ccccc1C(C/C(=N\O)C1CCSCC1)c1ccc(Br)cc1` (stereo not drawn) [Example 11, (E)-3-(4-Bromophenyl)-1-(tetrahydro-2H-thiopyran-4-yl)-3-o-tolylpropan-1-one oxime] was 9950 nM.

With `Cc1ccccc1C(C/C(=N\O)C1CCS(=O)(=O)CC1)c1ccc(Br)cc1` (stereo not drawn) [Example 12, 3-(4-Bromo-phenyl)-1-(1,1-dioxo-hexahydro-thiopyran-4-yl)-3-o-tolyl-propan-1-one oxime], the EC50 came to 9730 nM.

`Cc1ccccc1C(C/C(=N\O)[C@H]1CC[C@H](O)CC1)c1ccc(Br)cc1` (stereo partly drawn) [Example 13, (E)-3-(4-Bromophenyl)-1-(trans-4-hydroxycyclohexyl)-3-o-tolylpropan-1-one oxime] showed an EC50 of 2000 nM. Regarding `Cc1ccccc1C(C/C(=N\O)C1CCC(=O)CC1)c1ccc(Br)cc1` (stereo not drawn) [Example 14, (E)-4-(3-(4-bromophenyl)-1-(hydroxyimino)-3-o-tolylpropyl)cyclohexanone], the EC50 was 601 nM. Turning to `Cc1ccccc1C(C/C(=N\O)C1CCC(O)CC1)c1ccc(S(C)(=O)=O)cc1` (stereo not drawn) [Example 15, (E)-1-(4-Hydroxycyclohexyl)-3-(4-(methylsulfonyl)phenyl)-3-o-tolylpropan-1-one oxime], the EC50 was 680 nM. To `Cc1ccccc1C(C/C(=N/O)C1CCC(O)CC1)c1ccc(S(C)(=O)=O)cc1` (stereo not drawn) [Example 16, (Z)-1-(4-hydroxycyclohexyl)-3-(4-(methylsulfonyl)phenyl)-3-o-tolylpropan-1-one oxime] belongs 7720 nM. Take `Cc1ccccc1C(C/C(=N\O)[C@H]1CC[C@](C)(O)CC1)c1ccc(S(C)(=O)=O)cc1` (stereo partly drawn) [Example 17, (E)-1-((1r,4r)-4-Hydroxy-4-methylcyclohexyl)-3-(4-(methylsulfonyl)phenyl)-3-o-tolylpropan-1-one oxime]: the EC50 turned out to be 9810 nM. Turning to `Cc1ccccc1C(C/C(=N\O)C1CC(O)C1)c1ccc(Br)cc1` (stereo not drawn) [Example 18, (E)-3-(4-Bromophenyl)-1-(3-hydroxycyclobutyl)-3-o-tolylpropan-1-one oxime], the concentration giving a half-maximal response (EC50) came to 3850 nM.
